Reference: patent US20250325677A1, “STAT6 DEGRADERS” (Gilead Sciences, Inc., priority 2024, published 2025)
Read-outs that look alike come from different tables or passages of the source.

How the values were obtained:
eotaxin-3 release = assay: Human whole blood eotaxin-3 assay (IL-4 stimulated); assay type: cell-based; details: human whole blood
Description: Human Whole Blood Eotaxin-3 Assay
This was a human whole blood assay using recombinant human Interleukin 4 to stimulate the blood and measuring the ability of the test compounds to inhibit eotaxin-3 release. Compounds or media were added to the wells and incubated together with human whole blood for 120 minutes at 37° C. Subsequently, recombinant IL-4 was added at a final concentration of 0.4 nM. The plates were incubated for 48 hours.
Test compounds which inhibited eotaxin-3 release upon stimulation with human IL-4 (E. coli) interfered with the signaling in human whole blood are expected to have activity in human beings. […] The EC50 value indicates at which concentration test compounds were active and in inhibiting the eotaxin-3 release. As eotaxin-3 release is down-stream of STAT6 signaling both STAT6 inhibitors and STAT6 degraders are active in this assay.
The data from the human whole blood eotaxin-3 assay is shown below for Examples 3e27, 3e50, 3e17, and 3e51 (where the effect in % is plotted against the test concentration in M on a log-scale).

STAT6 = STAT6 (Homo sapiens (Human), UniProt P42226); assay: STAT6 degrader assay (HiBiT, HeLa LgBiT clone 4.14); assay type: cell-based; details: HeLa LgBiT clone 4.14, 4-24 h; geometric mean; given for compounds with >80% Emax; read-out: STAT6 degradation DC50
Sequence of STAT6 (P42226 whole entry): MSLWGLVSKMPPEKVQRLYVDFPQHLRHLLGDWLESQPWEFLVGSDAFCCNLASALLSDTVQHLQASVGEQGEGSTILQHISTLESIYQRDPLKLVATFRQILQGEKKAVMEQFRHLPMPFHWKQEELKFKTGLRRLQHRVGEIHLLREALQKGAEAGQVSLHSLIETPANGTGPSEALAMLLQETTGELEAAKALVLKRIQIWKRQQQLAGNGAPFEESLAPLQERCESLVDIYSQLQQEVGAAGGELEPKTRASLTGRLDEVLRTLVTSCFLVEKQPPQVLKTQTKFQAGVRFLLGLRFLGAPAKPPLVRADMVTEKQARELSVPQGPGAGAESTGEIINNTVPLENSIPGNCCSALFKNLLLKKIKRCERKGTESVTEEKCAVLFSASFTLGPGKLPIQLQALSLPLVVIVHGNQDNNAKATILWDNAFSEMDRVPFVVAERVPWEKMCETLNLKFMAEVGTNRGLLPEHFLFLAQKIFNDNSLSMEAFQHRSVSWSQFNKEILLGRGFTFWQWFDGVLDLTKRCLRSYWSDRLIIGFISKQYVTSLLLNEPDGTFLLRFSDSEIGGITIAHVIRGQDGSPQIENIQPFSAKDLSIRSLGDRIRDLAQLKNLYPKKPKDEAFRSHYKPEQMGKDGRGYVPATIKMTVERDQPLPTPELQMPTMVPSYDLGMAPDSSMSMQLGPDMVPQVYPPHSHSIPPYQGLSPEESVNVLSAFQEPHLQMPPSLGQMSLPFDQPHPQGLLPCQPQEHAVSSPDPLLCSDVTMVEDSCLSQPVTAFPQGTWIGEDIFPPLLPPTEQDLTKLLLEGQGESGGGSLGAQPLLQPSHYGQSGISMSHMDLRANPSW
Summary of the method: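 DC50 (nM) comes from luminescence of non-degraded STAT6 read 0.5 h after Nano-GLO addition, following 4-24 h compound exposure at 37° C. Cells were HeLa clone 4.14 expressing LgBiT with a CRISPR HiBiT tag on endogenous STAT6; 50 μM terfenadine set full degradation.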

[1] = IL-4 0.4 nM, 48 hours, geometric mean, given for compounds with >80% Emax, read-out: Eotaxin-3 EC50

EC50 (eotaxin-3 release; [1]) [nM] | DC50 (STAT6) [nM] | Structure (SMILES) | further results
230 |  | C[C@H]1CN(c2ccc3c(c2)C2(CC2)C(=O)N3C2CCC(=O)NC2=O)CCN1CC1CCN(C(=O)c2ccc(C3CCN([C@@H](C)c4cc5c(-c6ccc(N)nc6)ccnc5n4C)CC3)cc2)CC1 (stereo partly drawn) [Example 3h46, 3-(5′-((S)-4-((1-(4-(1-((S)-1-(4-(6-aminopyridin-3-yl)-1-methyl-1H-pyrrolo[2,3-b]pyridin-2-yl)ethyl)piperidin-4-yl)benzoyl)piperidin-4-yl)methyl)-3-methylpiperazin-1-yl)-2′-oxospiro[cyclopropane-1,3′-indolin]-1′-yl)piperidine-2,6-dione] | 
 | 1.1 | CNc1ccc(-c2ccnc3c2cc([C@H](C)N2CCC(c4ccc(C(=O)N5CCC(CN6CCN(Cc7ccc8c(c7)n(C)c(=O)n8[C@@H]7CCC(=O)NC7=O)C[C@@H]6C)CC5)cc4)CC2)n3C)cn1 (single isomer, unassigned) [Example 3h3] | 
 | 1.8 | Cn1c(CN2CCC(c3ccc(C(=O)N4CCC(CN5CCN(c6ccc7c(c6)n(C)c(=O)n7C6CCC(=O)NC6=O)CC5)CC4)cc3)CC2)cc2c(-c3ccc4[nH]ncc4c3)ccnc21 (stereo not drawn) [Example 3m2, 3-(5-(4-((1-(4-(1-((4-(1H-indazol-5-yl)-1-methyl-1H-pyrrolo[2,3-b]pyridin-2-yl)methyl)-piperidin-4-yl)benzoyl)piperidin-4-yl)methyl)piperazin-1-yl)-3-methyl-2-oxo-2,3-dihydro-1H-benzo[d]imidazol-1-yl)piperidine-2,6-dione] | 
 | 0.1 | CN(C(=O)c1ccc(C2CCN(Cc3cc4c(-c5ccc(N)nc5)ccnc4n3C)CC2)cc1)c1ccc(C2CCN(Cc3ccc4c(c3)oc(=O)n4C3CCC(=O)NC3=O)CC2)cc1 (stereo not drawn) [Example 3n3, 4-(1-((4-(6-aminopyridin-3-yl)-1-methyl-1H-pyrrolo[2,3-b]pyridin-2-yl)methyl)piperidin-4-yl)-N-(4-(1-((3-(2,6-dioxopiperidin-3-yl)-2-oxo-2,3-dihydrobenzo[d]oxazol-6-yl)methyl)piperidin-4-yl)phenyl)-N-methylbenzamide] | 
 | 1.1 | Cc1cc(C(=O)N2CCC(CN3CCN(Cc4ccc5c(c4)n(C4CC4)c(=O)n5C4CCC(=O)NC4=O)C[C@@H]3C)CC2)cc(F)c1C1=CCN([C@@H](C)c2cc3c(-c4ccc(N)nc4)ccnc3n2C)CC1 (stereo partly drawn) [Example 3h15, 3-(5-(((S)-4-((1-(4-(1-((S)-1-(4-(6-aminopyridin-3-yl)-1-methyl-1H-pyrrolo[2,3-b]pyridin-2-yl)ethyl)-1,2,3,6-tetrahydropyridin-4-yl)-3-fluoro-5-methylbenzoyl)piperidin-4-yl)methyl)-3-methyl-piperazin-1-yl)methyl)-3-cyclopropyl-2-oxo-2,3-dihydro-1H-benzo[d]imidazol-1-yl)piperidine-2,6-dione] | 

Further lines, the compound ahead of its results:

Structure (SMILES) | EC50 (eotaxin-3 release; [1]) [nM] | DC50 (STAT6) [nM] | further results
CNc1ccc(-c2ccnc3c2cc([C@H](C)N2CC=C(c4c(C)cc(C(=O)N5CCC(CN6CCN(Cc7ccc8c(c7)C7(CC7)C(=O)N8C7CCC(=O)NC7=O)C[C@@H]6C)CC5)cc4F)CC2)n3C)cn1 (stereo partly drawn) [Example 3h20, 3-(5′-(((S)-4-((1-(3-fluoro-5-methyl-4-(1-((S)-1-(1-methyl-4-(6-(methylamino)pyridin-3-yl)-1H-pyrrolo[2,3-b]pyridin-2-yl)ethyl)-1,2,3,6-tetrahydropyridin-4-yl)benzoyl)piperidin-4-yl)methyl)-3-methylpiperazin-1-yl)methyl)-2′-oxospiro[cyclopropane-1,3′-indolin]-1′-yl)piperidine-2,6-dione] | 3.6 |  | 
CNc1ccc(-c2ccnc3c2cc([C@H](C)N2CC=C(c4c(C)cc(C(=O)N5CCC(CN6CCN(c7cc8c(cc7F)n(C7CCC(=O)NC7=O)c(=O)n8C)CC6)CC5)cc4F)CC2)n3C)cn1 (stereo partly drawn) [Example 3h45, 3-(6-fluoro-5-(4-((1-(3-fluoro-5-methyl-4-(1-((S)-1-(1-methyl-4-(6-(methylamino)pyridin-3-yl)-1H-pyrrolo[2,3-b]pyridin-2-yl)ethyl)-1,2,3,6-tetrahydropyridin-4-yl)benzoyl)piperidin-4-yl)methyl)piperazin-1-yl)-3-methyl-2-oxo-2,3-dihydro-1H-benzo[d]imidazol-1-yl)piperidine-2,6-dione] | 6.7 |  | 
CNc1ccc(-c2ccnc3c2cc(CN2CC=C(c4c(F)cc(C(=O)N5CCC(CN6CCN(Cc7ccc8c(c7)C7(CC7)C(=O)N8C7CCC(=O)NC7=O)C[C@@H]6C)CC5)cc4F)CC2)n3C)cn1 (stereo partly drawn) [Example 3h37, 3-(5′-(((S)-4-((1-(3,5-difluoro-4-(1-((1-methyl-4-(6-(methylamino)pyridin-3-yl)-1H-pyrrolo[2,3-b]pyridin-2-yl)methyl)-1,2,3,6-tetrahydropyridin-4-yl)benzoyl)piperidin-4-yl)methyl)-3-methylpiperazin-1-yl)methyl)-2′-oxospiro[cyclopropane-1,3′-indolin]-1′-yl)piperidine-2,6-dione] | 95.5 |  | 
CC[C@H]1CN(Cc2ccc3c(c2)n(C)c(=O)n3[C@@H]2CCC(=O)NC2=O)CCN1CC1CCN(C(=O)c2ccc(C3CCN([C@@H](C)c4cc5c(-c6ccc(N)nc6)ccnc5n4C)CC3)cc2)CC1 (single isomer, unassigned) [Example 3e57] | 4.4 |  | 
C[C@@H](c1cc2c(-c3ccc(N)nc3)ccnc2n1C)N1CCC(c2ccc(C(=O)N3CCC(CN4CCN(c5cc6c(cc5F)n(C5CCC(=O)NC5=O)c(=O)n6C)CC4)CC3)cc2)CC1 (stereo partly drawn) [Example 3h44, 3-(5-(4-((1-(4-(1-((S)-1-(4-(6-aminopyridin-3-yl)-1-methyl-1H-pyrrolo[2,3-b]pyridin-2-yl)ethyl)piperidin-4-yl)benzoyl)piperidin-4-yl)methyl)piperazin-1-yl)-6-fluoro-3-methyl-2-oxo-2,3-dihydro-1H-benzo[d]imidazol-1-yl)piperidine-2,6-dione] | 19.4 |  | 
CCCS(=O)(=O)N[C@H]1C[C@@H](N(C)c2ncnc3[nH]ccc23)C1 [abroticinib, abrocitinib, reference compound] |  |  | EC50 (eotaxin-3 release; hIL-4 (E. coli) stimulation, read-out: EC50 of inhibition of eotaxin-3 release (reference compound)): ~450 nM; Emax (eotaxin-3 release; hIL-4 (E. coli) stimulation, read-out: Emax of inhibition of eotaxin-3 release): ~100%
CNc1ccc(-c2ccnc3c2cc([C@H](C)N2CC=C(c4c(F)cc(C(=O)N5CCC(CN6CCN(Cc7ccc8c(c7)C7(CC7)C(=O)N8C7CCC(=O)NC7=O)C[C@@H]6C)CC5)cc4F)CC2)n3C)cn1 (stereo partly drawn) [Example 3h36, 3-(5′-(((S)-4-((1-(3,5-difluoro-4-(1-((S)-1-(1-methyl-4-(6-(methylamino)pyridin-3-yl)-1H-pyrrolo[2,3-b]pyridin-2-yl)ethyl)-1,2,3,6-tetrahydropyridin-4-yl)benzoyl)piperidin-4-yl)methyl)-3-methylpiperazin-1-yl)methyl)-2′-oxospiro[cyclopropane-1,3′-indolin]-1′-yl)piperidine-2,6-dione] | 8.3 |  | 
CC[C@H]1CN(Cc2ccc3c(c2)n(C)c(=O)n3[C@H]2CCC(=O)NC2=O)CCN1CC1CCN(C(=O)c2ccc(C3CCN([C@@H](C)c4cc5c(-c6ccc(N)nc6)ccnc5n4C)CC3)cc2)CC1 (single isomer, unassigned) [Example 3e59] | 8.4 |  | 
CNc1ccc(-c2ccnc3c2cc([C@H](C)N2CCC(c4ccc(C(=O)N5CCC(CN6CCN(Cc7cc8c(cc7F)n([C@H]7CCC(=O)NC7=O)c(=O)n8C)C[C@@H]6C)CC5)cc4)CC2)n3C)cn1 [Example 3h23, (S)-3-(6-fluoro-3-methyl-5-(((S)-3-methyl-4-((1-(4-(1-((S)-1-(1-methyl-4-(6-(methylamino)pyridin-3-yl)-1H-pyrrolo[2,3-b]pyridin-2-yl)ethyl)piperidin-4-yl)benzoyl)piperidin-4-yl)methyl)piperazin-1-yl)methyl)-2-oxo-2,3-dihydro-1H-benzo[d]imidazol-1-yl)piperidine-2,6-dione] |  | 1.5 | 
Cn1c(CN2CCC(c3ccc(C(=O)N4CCC(CC5CCN(Cc6ccc7c(c6)n(C)c(=O)n7C6CCC(=O)NC6=O)CC5)CC4)cc3)CC2)cc2c(-c3ccc4[nH]ncc4c3)ccnc21 (stereo not drawn) [Example 3h1, 3-(5-((4-((1-(4-(1-((4-(1H-indazol-5-yl)-1-methyl-1H-pyrrolo[2,3-b]pyridin-2-yl)methyl)-piperidin-4-yl)benzoyl)piperidin-4-yl)methyl)piperidin-1-yl)methyl)-3-methyl-2-oxo-2,3-dihydro-1H-benzo[d]imidazol-1-yl)piperidine-2,6-dione] |  | 2.4 | 
COCCn1c(=O)n(C2CCC(=O)NC2=O)c2ccc(CN3CCN(CC4CCN(C(=O)c5ccc(C6CCN(Cc7cc8c(-c9ccc(N)nc9)ccnc8n7C)CC6)cc5)CC4)CC3)cc21 (stereo not drawn) [Example 3e7, 3-(5-((4-((1-(4-(1-((4-(6-aminopyridin-3-yl)-1-methyl-1H-pyrrolo[2,3-b]pyridin-2-yl)methyl)piperidin-4-yl)benzoyl)piperidin-4-yl)methyl)piperazin-1-yl)methyl)-3-(2-methoxyethyl)-2-oxo-2,3-dihydro-1H-benzo[d]imidazol-1-yl)piperidine-2,6-dione] |  | 9 | 
Cn1c(CN2CCC(c3ccc(C(=O)N4CCC(OCC#Cc5ccc6c(c5)n(C)c(=O)n6C5CCC(=O)NC5=O)CC4)cc3)CC2)cc2c(-c3ccc4[nH]ncc4c3)ccnc21 (stereo not drawn) [Example 3b1, 3-(5-(3-((1-(4-(1-((4-(1H-indazol-5-yl)-1-methyl-1H-pyrrolo[2,3-b]pyridin-2-yl)methyl)piperidin-4-yl)benzoyl)piperidin-4-yl)oxy)prop-1-yn-1-yl)-3-methyl-2-oxo-2,3-dihydro-1H-benzo[d]imidazol-1-yl)piperidine-2,6-dione] |  | 2.4 | 
